Reference: article PMC10223822, “Identification of the Hepatic Metabolites of Flumazenil and their Kinetic Application in Neuroimaging” (Pharmaceuticals, 2023)

Tests used:
[1] = Flumazenil metabolization in rat liver microsomes (LC-DAD/tandem MS); type: in vitro ADME
Experimental: (§1) The quantification of flumazenil metabolism by hepatic enzymes was performed using HPLC (Agilent 1100 series, Palo Alto, CA, USA), which is comprised of an online degasser, a binary pump, an auto sampler, a thermostat column oven (maintained at 25 °C), and a diode array detector (DAD, 250 nm). Data were acquired and processed using the Agilent ChemStation software (ed. 10.02). Separation was achieved using a C18 column with a guard column and an ammonium acetate buffer–acetonitrile gradient elution. The mobile phase consisted of eluents A (5 mM ammonium acetate aqueous buffer with 1% ACN, pH 7.0) and B (ACN only) at a flow rate of 0.6 mL min^−1. These were mixed to separate the metabolites and flumazenil from the sample matrices, according to the gradient program shown in Table 1. The overall LC time for flumazenil biotransformation was 15 min. An analyte solution of 5 µL was injected using an auto-sampler thermostat at 4 °C.
Mass spectrometric analysis of flumazenil in ACN was initially conducted on a 4000 QTrap LC-MS/MS system using API Analyst software 1.4.1 (AB Sciex, Concord, ON, Canada) to obtain the appropriate MS parameters and m/z for flumazenil fragments. Samples were introduced into the spectrometer, either by the HPLC system (Agilent 1100) or by a syringe pump, at a flow rate of 10 µL min^−1 (Harvard Apparatus Inc., Holliston, MA, USA). Chromatographic separation was conducted as described in the HPLC conditions section. The analytes were ionized by a turbo spray ion source (electrospray ionization, [ESI]) in the positive-ion mode at 5000 V and 350 °C. Mass spectra were recorded within a range of 100–1000 amu with unit resolutions of Q1 and Q3. The LC-tandem MS determination of flumazenil concentration was conducted in the multiple reaction monitoring positive-ion mode with transition ion pairs 304 → 258 and 304 → 276. […]
Incubation solutions were prepared according to the manufacturer’s instructions. […] The supernatants were filtered through a 0.22 µm PVDF disk filter and analyzed using LC-DAD and tandem MS. […]

[2] = Flumazenil biotransformation in rat liver homogenate (HPLC-DAD/tandem MS); type: in vitro ADME
Experimental: as §1
Mass spectrometric analysis of flumazenil in ACN was initially conducted on a 4000 QTrap LC-MS/MS system using API Analyst software 1.4.1 (AB Sciex, Concord, ON, Canada) to obtain the appropriate MS parameters and m/z for flumazenil fragments. Samples were introduced into the spectrometer, either by the HPLC system (Agilent 1100) or by a syringe pump, at a flow rate of 10 µL min^−1 (Harvard Apparatus Inc., Holliston, MA, USA). Chromatographic separation was conducted as described in the HPLC conditions section. The analytes were ionized by a turbo spray ion source (electrospray ionization, [ESI]) in the positive-ion mode at 5000 V and 350 °C. Mass spectra were recorded within a range of 100–1000 amu with unit resolutions of Q1 and Q3. The LC-tandem MS determination of flumazenil concentration was conducted in the multiple reaction monitoring positive-ion mode with transition ion pairs 304 → 258 and 304 → 276. Vaporized liquid nitrogen gas was used as the nebulizer, curtain, and collision gas in all 4000 QTrap LC–MS/MS studies.
Normal rat livers were obtained from healthy male SD rats weighing 400–450 g. […]

[3] = Radiochemical stability of [18F]flumazenil in 30% ethanol after end of synthesis; type: physicochemical; details: amber glass vial, room temperature, 8 h after end of synthesis (EOS)
[4] = In vitro serum stability of [18F]flumazenil (radio-TLC); details: for Radiochemical Purity (RCP, %) in serum: rat serum, 37 °C
Experimental: Serum preparation: healthy SD rats were deeply anesthetized with isoflurane gas (3% isoflurane in 50% oxygen, 1 mL/min). One milliliter of whole blood from healthy SD rats was withdrawn through the tail vein at room temperature and centrifuged at 3000 rpm for 10 min to obtain the prepared serum for stability testing.

Which “change of peak area of M3” value ([1]; up to 120 min incubation) does the source give for `CN1Cc2c(C(=O)OCCO)ncn2-c2ccc(F)cc2C1=O` [Metabolite M3] here?
Its value is “No significant increase”.

With `COC(=O)c1ncn2c1CN(C)C(=O)c1cc(F)ccc1-2` [Metabolite M1] as the compound, how does the M1 formation ([2]; flumazenil incubated in rat liver homogenate 0–250 min) read?
Its M1 formation is “relatively low amount”.

Which “peak area of M2 increased by” value ([1]; up to 120 min incubation) does the source give for `CN1Cc2c(C(=O)O)ncn2-c2ccc(F)cc2C1=O` [Metabolite M2] here?
Its value is 72%.

What does the source list for `CCOC(=O)c1ncn2c1CN(C)C(=O)c1cc([18F])ccc1-2` [[^18F]flumazenil]?
biotransformed metabolites in metabolism analysis ([2]; after 30 min, as worded in conclusions): about 50%; radiochemical purity in 30% ethanol [3]: > 90%; Radiochemical Purity (RCP, %) in serum ([4]; 0 min): 95.76%; Radiochemical Purity (RCP, %) in serum ([4]; 5 min): 93.28%; Radiochemical Purity (RCP, %) in serum ([4]; 10 min): 91.07%; Radiochemical Purity (RCP, %) in serum ([4]; 30 min): 87.46%; Radiochemical Purity (RCP, %) in serum ([4]; 60 min): 85.68%; Radiochemical Purity (RCP, %) in serum ([4]; 120 min): 79.95%; Radiochemical Purity (RCP, %) in serum ([4]; 240 min): 72.13%; intact [18F]flumazenil in serum ([4]; up to 1 h of incubation, regular conditions): > 85%

Which “parent drug biotransformed (parent peak area)” value ([2]; rat liver homogenate, 37 °C, 4 h (240 min)) does the source give for `CCOC(=O)c1ncn2c1CN(C)C(=O)c1cc(F)ccc1-2` [flumazenil, ethyl 8-fluoro-5-methyl-6-oxo-5,6-dihydro-4H-benzo[f]imidazo [1,5-a] [1, 4]diazepine-3-carboxylate] here?
Its value is “approximately 65%”.

What about the “flumazenil detected, of the initial amount” value ([1]; 120 min incubation) of the same compound?
Its value is “approximately 22%”.
